According to PubChem BioAssay AID1259321 (Sanford-Burnham Center for Chemical Genomics, 2017):
Activity calls are given as the source filed them.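 The calls were made as follows: active = half-maximal concentration for changing protein binding to DNA, from the fitted dose curve, below 10 micromolar; inactive = the rest.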

Target: Nuclear receptor subfamily 1 group D member 1 (Homo sapiens) (UniProt P20393)
Assay: modulators of Rev-erb alpha DNA binding, dose response, biochemical, FITC-DNA, fluorescence polarization (AID 1259321)

Sequence of Nuclear receptor subfamily 1 group D member 1 (Homo sapiens) (P20393 whole entry, looked up): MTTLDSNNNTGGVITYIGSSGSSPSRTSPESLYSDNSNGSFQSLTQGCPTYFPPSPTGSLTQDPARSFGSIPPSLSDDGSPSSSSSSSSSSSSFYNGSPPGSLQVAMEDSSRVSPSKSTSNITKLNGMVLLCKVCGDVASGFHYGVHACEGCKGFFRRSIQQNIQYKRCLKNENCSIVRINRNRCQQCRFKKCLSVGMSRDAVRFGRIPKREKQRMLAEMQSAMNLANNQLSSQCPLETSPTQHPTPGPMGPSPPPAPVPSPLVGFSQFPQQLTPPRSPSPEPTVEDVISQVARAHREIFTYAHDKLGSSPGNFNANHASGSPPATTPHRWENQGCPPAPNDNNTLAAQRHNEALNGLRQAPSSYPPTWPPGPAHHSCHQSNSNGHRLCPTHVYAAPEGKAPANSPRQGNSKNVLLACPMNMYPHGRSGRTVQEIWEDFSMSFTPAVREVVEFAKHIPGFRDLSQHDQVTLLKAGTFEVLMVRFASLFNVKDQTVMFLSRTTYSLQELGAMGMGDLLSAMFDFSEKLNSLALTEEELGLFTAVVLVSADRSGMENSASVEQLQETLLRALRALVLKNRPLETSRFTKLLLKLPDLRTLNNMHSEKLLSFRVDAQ

Cc1cc(C)c(NC(=O)CSc2nc3ncc(Br)cc3[nH]2)c(Cl)c1
IC50: 6.22 µM

COc1ccccc1NC(=O)c1sc(NC(=O)c2ccco2)c(C#N)c1C
IC50: 3.15 µM

COC(=O)c1cccc(Cn2ccc3ccc(-c4ccc5ccn(C(=O)c6ccc(C)cc6)c5c4)cc32)c1
IC50: > 40 µM (inactive)

COc1ccc2[nH]cc(/C=C/c3cc[n+](C)cc3)c2c1
IC50: 5.25 µM

COc1cccc(NC(=O)CSc2ncnc3c2oc2ccccc23)c1
IC50: > 40 µM (inactive)

COc1ccc(NC(=O)NNC(=O)COc2ccc3cc(Br)ccc3c2)cc1OC
IC50: 8.29 µM

COc1ccc(-c2c(C#N)c(SCC(N)=O)nc3c2CCCC3)cc1
IC50: 3.93 µM

Cc1[nH]nc2nc(SCC(=O)NCCC3=CCCCC3)n(-c3ccc(Br)cc3)c(=N)c12
IC50: > 40 µM (inactive)

C=CCN1C(=O)/C(=C\C=C2\N(C)c3ccccc3C2(C)C)SC1=S
IC50: inactive

CCN1/C(=C/C=C/c2oc3ccc(-c4ccccc4)cc3[n+]2CC)Oc2ccc(-c3ccccc3)cc21
IC50: > 40 µM (inactive)

COc1cccc(C(=O)n2ccc3ccc(-c4ccc5ccn(C(=O)c6cccc(OC)c6)c5c4)cc32)c1
IC50: 3.26 µM

C/C(=N\N(Cc1ccccc1)c1ccccc1)c1ccncc1
IC50: 6.97 µM

CCN(CC)c1ccc(/C=C2\C(=O)NC(=S)N(C)C2=O)o1
IC50: 4.36 µM

CC(C)CCN1C(=O)c2cccc3c(N)ccc(c23)C1=O
IC50: 2.83 µM

O=C(OCCN1C(=O)c2cccc3c(N4CCOCC4)ccc(c23)C1=O)c1ccccc1Cl
IC50: 8.24 µM

Cc1nc(NCCc2ccc(Cl)cc2)c2nnn(Cc3ccccc3)c2n1
IC50: 1.91 µM

O=C(Nc1ccnc(-c2cccnc2)n1)c1ccc(Cl)cc1
IC50: 5.12 µM

CCOC(=O)CSc1nc2cc3c(cc2cc1C#N)OCO3
IC50: > 40 µM (inactive)

CCC[C@H]1[C@@H](N(C)Cc2cccs2)CC[C@@]23CCCN2C(=O)CCC[C@@H]13
IC50: inactive

Cc1nn2c(N)c(C#N)cnc2c1-c1ccc(Cl)cc1
IC50: 6.12 µM

CCCCOc1ccc(C(=O)n2ccc3ccc(-c4ccc5ccn(Cc6ccccc6)c5c4)cc32)cc1
IC50: > 40 µM (inactive)

CN(C)c1ccc2nc3c(=O)[nH]c(=O)nc-3n(CC(O)C(O)C(O)CO)c2c1 (configuration not stated)
IC50: 0.801 µM

COc1ccccc1N1C(=O)c2cccc3c(N(C)CCO)ccc(c23)C1=O
IC50: 8.2 µM

COc1ccccc1C(=O)Nc1nnc(-c2ccc(F)cc2)s1
IC50: 3.13 µM

COc1cccc(C(=O)CSc2nnc(-c3cc(OC)cc(OC)c3)o2)c1
IC50: inactive

COc1ccc2cc(C)c(SCC(=O)Nc3cc(C)on3)nc2c1
IC50: > 40 µM (inactive)

CCOC(=O)COc1c(Cl)cc(C2NC(=S)NC(c3ccccc3)=C2C(C)=O)cc1OCC (configuration not stated)
IC50: 1.16 µM

Cc1cc(=O)oc2cc(OCC(=O)Nc3ccc(S(=O)(=O)N(C)C)cc3)ccc12
IC50: > 40 µM (inactive)

CCOC(=O)CSc1nc2cc(OCC)ccc2cc1C#N
IC50: 6.06 µM

CCOc1ccccc1-c1nc(-c2ccc(NC(=O)Cc3ccc(OC)cc3)cc2)no1
IC50: 6.52 µM

O=C(CSc1nnc(-c2cccs2)o1)c1ccc2c(c1)OCO2
IC50: inactive

CCc1cc2cc3c(cc2nc1SCC(=O)Nc1c[nH]c(=O)[nH]c1=O)OCO3
IC50: 2.22 µM

Cc1nonc1NC(=O)CSc1nc2ccccc2cc1C#N
IC50: inactive

CCOC(=O)c1cc2c(=O)c3ccccc3oc2nc1C
IC50: > 40 µM (inactive)

CSc1ccc(SC2CN(Cc3ccc(C)cc3)S(=O)(=O)C2)cc1 (configuration not stated)
IC50: inactive

O=C(CSc1nc2c(c(C(F)(F)F)n1)CCc1ccccc1-2)NCc1ccccc1
IC50: 4.21 µM

COc1ccc(C(=O)c2ccc(OC)c(Br)c2)cc1Br
IC50: > 40 µM (inactive)

CCn1cc(/C=C/c2cc[n+](C)cc2)c2ccccc21
IC50: 3.25 µM

Cc1ccc(C(=O)Nc2nc3ccccc3c(=O)s2)cc1
IC50: 0.599 µM

CCc1ccc(-c2cc(C(F)(F)F)n3nc(C(=O)Nc4c(C)nn(Cc5ccccc5Cl)c4C)cc3n2)s1
IC50: inactive

COc1ccc(-c2nn(C)c3sc(C(=O)NCc4ccco4)cc23)cc1OC
IC50: > 40 µM (inactive)

COc1cc(OC)cc(-c2c(Sc3ccccc3)c3cc(-c4ccc(SC)cc4)ccc3n2C)c1
IC50: 5.97 µM

COc1ccc2c(c1)c(=O)oc1cc(OCC(=O)NC3CC3)ccc12
IC50: 6.09 µM

Cc1ccc2[nH]cc(/C=C/c3cc[n+](C)cc3)c2c1
IC50: > 40 µM (inactive)

CC1(C)Cc2c(sc3c2c(N)nc(=S)n3Cc2ccc(Br)cc2)CO1
IC50: inactive

N#Cc1c(-c2cccs2)cc(C2CC2)nc1SCC(N)=O
IC50: 1.35 µM

CCN(CC)c1ccc(C=C2SC(=S)NC2=O)cc1
IC50: 6.72 µM

CCC(=O)c1cn(CC(=O)Nc2cccc(C)c2)c2ccccc12
IC50: > 40 µM (inactive)

COc1cc(OC)cc(-c2c(Sc3ccccc3)c3cc(-c4ccc(OC)c(F)c4)ccc3n2C)c1
IC50: 1.33 µM

CCN(CC)c1ccc2cc(C(=O)NCc3ccc(F)cc3)c(=N)oc2c1
IC50: inactive

CCC(=O)c1ccc(N2CCN(S(=O)(=O)c3ccccc3)CC2)c(F)c1
IC50: 2.96 µM

Cc1ccccc1NC(=O)c1sc(NC(=O)COc2ccccc2)c(C#N)c1C
IC50: > 40 µM (inactive)

COc1ccccc1NC(=O)c1sc2ncn(Cc3cccc(C)c3)c(=O)c2c1C
IC50: 0.38 µM

CN(C)c1nc(-c2cccnc2)nc(-c2ccccc2)c1C#N
IC50: inactive

COCCn1c(=NC(=O)c2ccc3c(c2)OCCO3)sc2cc(S(N)(=O)=O)ccc21
IC50: 4.94 µM

COc1ccc(-c2nn(C)c(=O)c3ccccc23)cc1NC(=O)COc1ccccc1
IC50: 7.9 µM

COC(=O)Cn1c(=NC(=O)c2nc3ccccc3s2)sc2cc(S(C)(=O)=O)ccc21
IC50: 0.402 µM

COc1ccc(C2=NN(C(=O)CSc3ncccn3)C(c3cccc(OC)c3OC)C2)cc1 (configuration not stated)
IC50: 1.5 µM

CCc1nc(SCC(=O)NCCc2ccccc2)c2oc3ccccc3c2n1
IC50: 1.57 µM

Cc1ccc(CSc2nc3ccncc3n2CC(=O)Nc2cc(C)cc(C)c2)cc1
IC50: > 40 µM (inactive)

Oc1ccccc1-c1nc(NCc2ccccc2)c2ccccc2n1
IC50: > 40 µM (inactive)

O=C(Nc1nc2ccsc2c(=O)s1)c1ccc(Cl)cc1
IC50: 7.69 µM

CCOc1ccc(CNC(=O)C2CCN(c3nnc(C)c4c(C)n(-c5ccc(C)cc5)nc34)CC2)cc1
IC50: inactive

CCn1c(=NC(=O)c2ccc(N3C(=O)CCC3=O)cc2)sc2c(OC)ccc(OC)c21
IC50: 2.63 µM

COCCN(Cc1cc2cc(C)ccc2n2nnnc12)C(=S)Nc1ccccc1C
IC50: 2.73 µM

COc1ccc(NC(=O)CSc2nc(N)c(C#N)cc2C#N)cc1
IC50: 5.76 µM

COc1cc(/C=N/NC(=O)c2c(C)nc3ccc(Cl)cn23)cc(OC)c1OC
IC50: > 40 µM (inactive)

CCN(CC(=O)NCc1ccc(Cl)cc1)C(=O)c1ccc2cc(OC)ccc2c1
IC50: 4.52 µM

Cc1sc2nc(SCC(=O)NCc3ccco3)n(CCc3ccccc3)c(=O)c2c1C
IC50: > 40 µM (inactive)

CCOC(=O)c1sc(NC(=S)NC(=O)c2ccc(OC)cc2)nc1C
IC50: 2.11 µM

COc1ccc(NC(=O)c2sc3nc(N4CCCC4)c4c(c3c2N)CC(C)(C)OC4)cc1
IC50: > 40 µM (inactive)

c1ccc2nc(-c3ccc(N4CCOCC4)cc3)ccc2c1
IC50: > 40 µM (inactive)

COc1cc(SC)ccc1C(=O)Nc1ccc(Cl)cn1
IC50: 4.58 µM

CCOc1ccc(S(=O)(=O)Nc2nc3ccccc3nc2-n2ccc(=NC(=O)c3ccccc3C)cc2)cc1
IC50: > 40 µM (inactive)

COc1nc(-c2ccccc2)ccc1-c1noc(-c2cccs2)n1
IC50: > 40 µM (inactive)

COc1ccc(OC)c(-c2csc(NC(=O)c3ccc4c(c3)OCO4)n2)c1
IC50: 3.24 µM

COC(=O)Cn1c(=NC(=O)CCS(=O)(=O)c2ccccc2)sc2c(OC)ccc(OC)c21
IC50: 3.16 µM

Cc1ccc(N(Cc2cc3cc(C)ccc3[nH]c2=O)C(=O)c2cccs2)cc1
IC50: 5.54 µM

O=C(CSc1ncnc2c1oc1ccccc12)Nc1ccccc1F
IC50: 7.81 µM

COc1ccc2cc(C(=O)COC(=O)COc3ccc4c(C)cc(=O)oc4c3)ccc2c1
IC50: 4.26 µM

COc1ccc(C(=O)Nc2nnc(Cc3ccccc3)s2)c(OC)c1
IC50: inactive

O=C(CCS(=O)(=O)c1ccccc1)Nc1ccccc1-c1nc2ccccc2s1
IC50: 0.518 µM

Oc1ccc(Br)cc1C1Nc2ccccc2S1 (configuration not stated)
IC50: 6.22 µM

Cc1ccc(C(=O)CSc2nc3ccccc3c(=O)n2-c2ccccc2)s1
IC50: 7.75 µM

Cc1cc(C)c2nc(SCC(=O)Nc3cc(C)on3)c(C#N)cc2c1
IC50: 4.17 µM

CCOC(=O)c1ccccc1NC(=O)c1cncc(Br)c1
IC50: 7.27 µM

CCc1nnc(NC(=O)CSc2nc3cc4c(cc3cc2C)OCCO4)s1
IC50: 7.62 µM

COC(=O)c1cccc(Cn2ccc3ccc(-c4ccc5ccn(C(=O)c6ccccc6OC)c5c4)cc32)c1
IC50: 0.91 µM

Cc1ccccc1OCC(=O)Nc1cccc2nsnc12
IC50: 4.7 µM

N#CC1=C(SCC(N)=O)NC2=C(C(=O)c3ccccc32)C1c1ccc(Cl)cc1 (configuration not stated)
IC50: 7.01 µM

CCN1C(=O)CSC1=NC1C2CC3CC(C2)CC1C3 (configuration not stated)
IC50: 4.66 µM

Cc1ccc(NC(=S)Nc2nc(CC(=O)Nc3ccccc3)cs2)cc1
IC50: 3.84 µM
